Results as given in patent US20250271426A1, “REDUCTION OF BITTER TASTE OF ACTIVE PHARMACEUTICAL INGREDIENTS AND RELATED ASSAYS AND SCREENING METHODS” (Firmenich Incorporated, priority 2022, published 2025).

Columns and labels:
Test in all cases: FLIPR calcium assay, cells with promiscuous G protein transfected with bitter receptor cDNA
Assay type in all cases: cell-based
Conditions in all cases: responsive if cellular response of >10% over baseline, Fluo4-AM
[1] = molecular target: T1, T2R receptor SEQ ID NO: 5 (S5) (Homo sapiens, UniProt P59534)
T1 construct: expressed in transfected cells; host or cells: cells expressing a promiscuous G protein (e.g., G16g44)
T1 sequence (P59534 18-338): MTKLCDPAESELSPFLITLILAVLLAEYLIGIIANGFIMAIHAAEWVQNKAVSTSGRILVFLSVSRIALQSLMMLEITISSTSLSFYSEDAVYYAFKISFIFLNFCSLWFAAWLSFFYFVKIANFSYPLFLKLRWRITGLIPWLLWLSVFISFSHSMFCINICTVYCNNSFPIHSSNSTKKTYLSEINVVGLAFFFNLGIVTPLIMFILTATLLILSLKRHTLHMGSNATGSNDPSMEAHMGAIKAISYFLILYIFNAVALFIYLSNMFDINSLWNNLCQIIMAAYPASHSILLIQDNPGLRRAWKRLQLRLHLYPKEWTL
Summary of the method: (§1)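 Promiscuous G protein (e.g., G16g44)-expressing cells transfected with one bitter receptor cDNA each, 28 h incubation, then Fluo4-AM loading for 60 min and wash. Agonist-evoked intracellular calcium fluorescence recorded on FLIPR; receptor deemed responsive when response exceeded 10% over baseline.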

[2] = molecular target: T2, T2R receptor SEQ ID NO: 3 (S3) (Homo sapiens, UniProt Q9NYW0, T156M)
T2 construct: expressed in transfected cells; host or cells: cells expressing a promiscuous G protein (e.g., G16g44)
T2 sequence (Q9NYW0 1-307 T156M): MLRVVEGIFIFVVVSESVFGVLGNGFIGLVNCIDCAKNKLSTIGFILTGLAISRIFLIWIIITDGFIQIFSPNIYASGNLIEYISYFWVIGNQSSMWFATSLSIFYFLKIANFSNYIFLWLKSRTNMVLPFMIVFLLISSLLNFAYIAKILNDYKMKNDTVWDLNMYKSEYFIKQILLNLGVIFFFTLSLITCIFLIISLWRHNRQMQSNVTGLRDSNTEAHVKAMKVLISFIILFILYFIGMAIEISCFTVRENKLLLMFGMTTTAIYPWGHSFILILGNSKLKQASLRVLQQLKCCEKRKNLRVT
Summary of the method: as §1

[3] = molecular target: T3, T2R receptor SEQ ID NO: 6 (S6) (Homo sapiens, UniProt P59540)
T3 construct: expressed in transfected cells; host or cells: cells expressing a promiscuous G protein (e.g., G16g44)
T3 sequence (P59540 1-309): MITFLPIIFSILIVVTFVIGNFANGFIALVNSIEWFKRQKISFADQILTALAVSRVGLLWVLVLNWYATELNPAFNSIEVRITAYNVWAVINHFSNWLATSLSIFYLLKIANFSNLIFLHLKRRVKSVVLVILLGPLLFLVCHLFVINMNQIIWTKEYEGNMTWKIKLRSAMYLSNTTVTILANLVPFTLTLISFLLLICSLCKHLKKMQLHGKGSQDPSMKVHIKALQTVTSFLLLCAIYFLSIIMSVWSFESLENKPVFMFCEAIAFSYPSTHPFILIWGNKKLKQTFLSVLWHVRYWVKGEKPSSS
Summary of the method: as §1

[4] = molecular target: T4, T2R receptor SEQ ID NO: 2 (S2) (Homo sapiens, UniProt Q9NYW2)
T4 construct: expressed in transfected cells; host or cells: cells expressing a promiscuous G protein (e.g., G16g44)
T4 sequence (Q9NYW2 1-309): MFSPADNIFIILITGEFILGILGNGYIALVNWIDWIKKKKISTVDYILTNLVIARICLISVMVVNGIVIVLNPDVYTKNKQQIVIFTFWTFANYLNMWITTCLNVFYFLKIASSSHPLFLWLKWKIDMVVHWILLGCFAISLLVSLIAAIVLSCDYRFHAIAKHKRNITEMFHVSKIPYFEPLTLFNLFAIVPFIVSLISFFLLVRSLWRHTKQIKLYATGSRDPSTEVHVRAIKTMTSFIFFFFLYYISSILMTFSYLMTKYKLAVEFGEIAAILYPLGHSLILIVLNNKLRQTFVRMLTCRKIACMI
Summary of the method: as §1

[5] = molecular target: T5, T2R receptor SEQ ID NO: 1 (S1) (Homo sapiens, UniProt Q9NYW7)
T5 construct: expressed in transfected cells; host or cells: cells expressing a promiscuous G protein (e.g., G16g44)
T5 sequence (Q9NYW7 1-299): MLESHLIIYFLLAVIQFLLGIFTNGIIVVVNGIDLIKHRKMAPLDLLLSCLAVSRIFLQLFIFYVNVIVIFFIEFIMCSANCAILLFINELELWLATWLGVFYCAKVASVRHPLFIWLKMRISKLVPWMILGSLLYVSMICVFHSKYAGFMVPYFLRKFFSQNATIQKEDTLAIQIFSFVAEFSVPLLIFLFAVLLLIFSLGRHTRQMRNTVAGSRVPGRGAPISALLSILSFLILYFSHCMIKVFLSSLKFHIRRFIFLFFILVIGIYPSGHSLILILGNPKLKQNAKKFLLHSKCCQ
Summary of the method: as §1

[6] = molecular target: T6, T2R receptor SEQ ID NO: 4 (S4) (Homo sapiens, UniProt Q9NYV8)
T6 construct: expressed in transfected cells; host or cells: cells expressing a promiscuous G protein (e.g., G16g44)
T6 sequence (Q9NYV8 1-317): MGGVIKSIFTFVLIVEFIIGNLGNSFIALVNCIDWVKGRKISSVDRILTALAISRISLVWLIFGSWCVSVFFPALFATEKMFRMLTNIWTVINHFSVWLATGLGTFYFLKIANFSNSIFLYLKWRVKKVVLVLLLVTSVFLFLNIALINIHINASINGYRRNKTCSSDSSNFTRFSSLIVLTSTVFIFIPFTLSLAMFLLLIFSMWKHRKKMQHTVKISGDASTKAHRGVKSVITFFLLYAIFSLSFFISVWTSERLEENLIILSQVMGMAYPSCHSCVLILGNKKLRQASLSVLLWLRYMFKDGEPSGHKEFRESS
Summary of the method: as §1

Compound | S5 positive response of T2R receptor to API [1] | S3 positive response of T2R receptor to API [2] | S6 positive response of T2R receptor to API [3] | S2 positive response of T2R receptor to API [4] | S1 positive response of T2R receptor to API [5] | S4 positive response of T2R receptor to API [6]
CN1[C@@H]2CC[C@H]1C[C@@H](OC(=O)C(CO)c1ccccc1)C2 (stereo partly drawn) [Atropine] | + (a “+” to indicate whether a particular T2R receptor showed a positive response to a particular API) | + (a “+” to indicate whether a particular T2R receptor showed a positive response to a particular API) | + (a “+” to indicate whether a particular T2R receptor showed a positive response to a particular API) | + (a “+” to indicate whether a particular T2R receptor showed a positive response to a particular API) | – | –
CCN[C@H]1C[C@H](C)S(=O)(=O)c2sc(S(N)(=O)=O)cc21 [Dorzolamide] | – | + (a “+” to indicate whether a particular T2R receptor showed a positive response to a particular API) | + (a “+” to indicate whether a particular T2R receptor showed a positive response to a particular API) | + (a “+” to indicate whether a particular T2R receptor showed a positive response to a particular API) | + (a “+” to indicate whether a particular T2R receptor showed a positive response to a particular API) | –
CCn1cc(C(=O)O)c(=O)c2cc(F)c(N3CCNC(C)C3)c(F)c21 (stereo not drawn) [Lomefloxacin] | – | – | + (a “+” to indicate whether a particular T2R receptor showed a positive response to a particular API) | + (a “+” to indicate whether a particular T2R receptor showed a positive response to a particular API) | – | –
CCN[C@H]1CN(CCCOC)S(=O)(=O)c2sc(S(N)(=O)=O)cc21 [Brinzolamide] | – | + (a “+” to indicate whether a particular T2R receptor showed a positive response to a particular API) | + (a “+” to indicate whether a particular T2R receptor showed a positive response to a particular API) | + (a “+” to indicate whether a particular T2R receptor showed a positive response to a particular API) | + (a “+” to indicate whether a particular T2R receptor showed a positive response to a particular API) | –
NCC1(CC(=O)O)CCCCC1 [Gabapentin] | – | + (a “+” to indicate whether a particular T2R receptor showed a positive response to a particular API) | – | + (a “+” to indicate whether a particular T2R receptor showed a positive response to a particular API) | – | –
C[C@H]1O[C@@H](O[C@H]2[C@@H](O)C[C@H](O[C@H]3[C@@H](O)C[C@H](O[C@H]4CC[C@@]5(C)[C@H](CC[C@@H]6[C@@H]5C[C@@H](O)[C@]5(C)[C@@H](C7=CC(=O)OC7)CC[C@]65O)C4)O[C@@H]3C)O[C@@H]2C)C[C@H](O)[C@@H]1O [Digoxin] | – | + (a “+” to indicate whether a particular T2R receptor showed a positive response to a particular API) | + (a “+” to indicate whether a particular T2R receptor showed a positive response to a particular API) | + (a “+” to indicate whether a particular T2R receptor showed a positive response to a particular API) | – | + (a “+” to indicate whether a particular T2R receptor showed a positive response to a particular API)
C[C@]12C=CC(=O)C=C1CC[C@@H]1[C@@H]2C(=O)C[C@@]2(C)[C@H]1CC[C@]2(O)C(=O)CO [Prednisone] | – | + (a “+” to indicate whether a particular T2R receptor showed a positive response to a particular API) | + (a “+” to indicate whether a particular T2R receptor showed a positive response to a particular API) | + (a “+” to indicate whether a particular T2R receptor showed a positive response to a particular API) | + (a “+” to indicate whether a particular T2R receptor showed a positive response to a particular API) | + (a “+” to indicate whether a particular T2R receptor showed a positive response to a particular API)
COc1ccc2nc([S@@+]([O-])Cc3ncc(C)c(OC)c3C)[nH]c2c1 [Esomeprazole] | – | + (a “+” to indicate whether a particular T2R receptor showed a positive response to a particular API) | + (a “+” to indicate whether a particular T2R receptor showed a positive response to a particular API) | + (a “+” to indicate whether a particular T2R receptor showed a positive response to a particular API) | – | + (a “+” to indicate whether a particular T2R receptor showed a positive response to a particular API)
CN(C)CCC(c1ccc(Cl)cc1)c1ccccn1 (stereo not drawn) [Chlorpheniramine] | + (a “+” to indicate whether a particular T2R receptor showed a positive response to a particular API) | + (a “+” to indicate whether a particular T2R receptor showed a positive response to a particular API) | + (a “+” to indicate whether a particular T2R receptor showed a positive response to a particular API) | – | + (a “+” to indicate whether a particular T2R receptor showed a positive response to a particular API) | + (a “+” to indicate whether a particular T2R receptor showed a positive response to a particular API)
COc1ccc([C@@H]2Sc3ccccc3N(CCN(C)C)C(=O)[C@@H]2OC(C)=O)cc1 [Diltiazem] | – | + (a “+” to indicate whether a particular T2R receptor showed a positive response to a particular API) | + (a “+” to indicate whether a particular T2R receptor showed a positive response to a particular API) | + (a “+” to indicate whether a particular T2R receptor showed a positive response to a particular API) | + (a “+” to indicate whether a particular T2R receptor showed a positive response to a particular API) | + (a “+” to indicate whether a particular T2R receptor showed a positive response to a particular API)
CCCCC(CC)COC(=O)CC(C(=O)OCC(CC)CCCC)S(=O)(=O)O (stereo not drawn) [Docusate] | – | – | – | + (a “+” to indicate whether a particular T2R receptor showed a positive response to a particular API) | + (a “+” to indicate whether a particular T2R receptor showed a positive response to a particular API) | + (a “+” to indicate whether a particular T2R receptor showed a positive response to a particular API)
